Experimental data reported in patent US6967034B2, “Herbal-based composition for treating acute and chronic myeloid leukemia” (Council of Scientific and Industrial Research, priority 2002, dated 2005).

Columns and labels:
Type in all cases: cell-based, human
[1] = system: CD33+ myeloid leukemia cells; assay: Incubation of PBMC of CD33+ myeloid leukemia patients, viability count and flow cytometry; conditions: purified compound, varied concentrations, 48 h
Method: Preparation of peripheral blood mononuclear cells (PBMC) from CD33+ myeloid leukemia patients ex vivo blood.
(§1) Whole blood (10 ml) was drawn from a previously diagnosed CD33+ myeloid leukemic patient and mononuclear cells were separated by Ficoll/hypaqal density gradient centrifugation.
Incubation of PBMC of myeloid leukemia patients with crude Piper betel extract. PBMC (2×10^6/ml) of myeloid leukemia patients were incubated with Piper betel extract (10.0 mg/ml) for 48 hours and then washed and counted for viability.
Incubation of PBMC of myeloid leukemia patients with fraction E in vitro. PBMC (2×10^6/ml) of myeloid leukemia patients were incubated with varied concentrations of fraction E for 48 hours. Cells were then washed and counted for viability.
(§2) Incubation of PBMC of myeloid leukemia patients with purified compound 3-O-p-coumaryl quinic acid in vitro. PBMC (2×10^6/ml) of myeloid leukemia patients were incubated with varied concentrations of purified compound for 48 h. Cells were then washed, and counted for viability.
Flow cytometry of myeloid leukemia cells. Myeloid leukemia cells before and after in vitro incubation with crude Piper betel extract, purified fraction E or purified 3-O-p-coumaryl quinic acid were marked with anti-CD33-FITC and anti-CD13-PE monoclonal antibodies. Cells were then analysed in a flow cytometer (FACS Calibur, Bection Dickinson, USA)

[2] = system: AML cells; assay: Growth inhibition of AML cells in vitro; conditions: 48 h
Method: as §1, §2
Incubation of myeloid leukemic cells with fractions having retention time 3.60 (fraction-1) and 24.00 min (fraction 9). PBMC of myeloid leukemic patients were incubated with above-mentioned fractions, alone or in combination of the two for 48 HRs. Cells were then washed and counted for viability.

[3] = system: CML cells; assay: Growth inhibition of CML cells in vitro; conditions: 48 h
Method: as §1, §2

Structure (SMILES): O=C(C=Cc1ccc(O)cc1)OC1CC(O)(C(=O)O)CC(O)C1O (stereo not drawn) [3-O-p-coumaryl quinic acid]
- Destruction of PBMC of CD33+ myeloid leukemia patients (both AML and CML) [1]: destroyed
- Percent inhibition of growth ([2]; 100 μg/ml): 53.37%
- Percent inhibition of growth ([2]; 600 μg/ml): 100.00%
- % Inhibition (percent inhibition of growth) ([2]; single fraction, dose 100 μg/ml): 54.00%
- Percent inhibition of growth ([3]; 100 μg/ml): 2.53%
- Percent inhibition of growth ([3]; 600 μg/ml): 79.50%
